According to the NIST ThermoML archive (doi:10.1021/je400408w):

Assay: molar heat capacity at constant pressure; xn = mol fraction of the nth substance listed
Settings: 100 kPa, Liquid

Cc1ccccc1Cl [2-chlorotoluene] + O=C1CCCN1
molar heat capacity at constant pressure [J/K/mol]
Settings | 293.15 K | 298.15 K | 303.15 K
x2 = 0 | 176.43 | 178.21 | 180.01
x2 = 0.0426 | 177.32 | 179.22 | 181.34
x2 = 0.0815 | 178.2 | 180.1 | 182.4
x2 = 0.1243 | 179.12 | 181.15 | 183.61
x2 = 0.1654 | 180 | 182.08 | 184.67
x2 = 0.2067 | 180.7 | 182.94 | 185.64
x2 = 0.2432 | 181.17 | 183.62 | 186.37
x2 = 0.2851 | 181.73 | 184.27 | 186.97
x2 = 0.3215 | 182.2 | 184.63 | 187.49
x2 = 0.3645 | 182.46 | 184.96 | 187.88
x2 = 0.4088 | 182.43 | 185.2 | 188.02
x2 = 0.4426 | 182.43 | 185.07 | 187.93
x2 = 0.4854 | 182.08 | 184.93 | 187.72
x2 = 0.5231 | 181.74 | 184.55 | 187.37
x2 = 0.5612 | 181.22 | 183.98 | 186.88
x2 = 0.5987 | 180.54 | 183.29 | 186.2
x2 = 0.6316 | 179.75 | 182.48 | 185.46
x2 = 0.6724 | 178.85 | 181.51 | 184.4
x2 = 0.7143 | 177.56 | 180.26 | 183.11
x2 = 0.7543 | 176.48 | 178.86 | 181.78
x2 = 0.796 | 175.15 | 177.45 | 180.2
x2 = 0.8342 | 173.85 | 176.13 | 178.66
x2 = 0.8724 | 172.53 | 174.47 | 177.02
x2 = 0.9088 | 171.32 | 173.04 | 175.4
x2 = 0.9426 | 170.19 | 171.72 | 173.87

O=C1CCCN1 [2-pyrrolidinone] + Cc1ccc(Cl)cc1
x1 = 1
Settings | molar heat capacity at constant pressure [J/K/mol]
293.15 K | 168.36
298.15 K | 169.55
303.15 K | 171.18

O=C1CCCN1 [2-pyrrolidinone] + Cc1cccc(Cl)c1
x1 = 1
Settings | molar heat capacity at constant pressure [J/K/mol]
293.15 K | 168.36
298.15 K | 169.55
303.15 K | 171.18

O=C1CCCN1 [2-pyrrolidinone] + Cc1ccccc1Cl
x1 = 1
Settings | molar heat capacity at constant pressure [J/K/mol]
293.15 K | 168.36
298.15 K | 169.55
303.15 K | 171.18

Cc1cccc(Cl)c1 [3-chlorotoluene] + CN1CCCC1=O
molar heat capacity at constant pressure [J/K/mol]
Settings | 293.15 K | 298.15 K | 303.15 K
x2 = 0 | 175.21 | 176.46 | 177.67
x2 = 0.0566 | 176.9 | 178.51 | 180.44
x2 = 0.0976 | 178.07 | 179.91 | 182.2
x2 = 0.1345 | 179.19 | 181.07 | 183.53
x2 = 0.1724 | 180.12 | 182.1 | 184.76
x2 = 0.2187 | 181.31 | 183.26 | 186.04
x2 = 0.2565 | 182.12 | 184.06 | 186.9
x2 = 0.2934 | 182.85 | 184.82 | 187.61
x2 = 0.3342 | 183.56 | 185.46 | 188.27
x2 = 0.3745 | 184.2 | 185.98 | 188.79
x2 = 0.4187 | 184.71 | 186.4 | 189.2
x2 = 0.4568 | 184.96 | 186.73 | 189.36
x2 = 0.4986 | 185.09 | 186.84 | 189.47
x2 = 0.5386 | 185.06 | 186.75 | 189.31
x2 = 0.5783 | 184.78 | 186.58 | 189.08
x2 = 0.6112 | 184.42 | 186.25 | 188.68
x2 = 0.6542 | 183.69 | 185.54 | 187.92
x2 = 0.6923 | 182.87 | 184.66 | 187.08
x2 = 0.7328 | 181.83 | 183.55 | 185.83
x2 = 0.7786 | 179.95 | 181.8 | 183.95
x2 = 0.8189 | 178.11 | 180 | 182.01
x2 = 0.8324 | 177.43 | 179.29 | 181.17
x2 = 0.8621 | 175.85 | 177.56 | 179.36
x2 = 0.9078 | 172.92 | 174.43 | 175.98
x2 = 0.9427 | 170.28 | 171.62 | 172.92
